Reference: US5693642A, “Piperazine derivatives as 5-HT1A ligands” (John Wyeth & Brother Ltd., priority 1993, dated 1997)

Target: T1, 5-HT1A receptor (Rattus norvegicus, UniProt P19327)
T1 construct: rat hippocampal membrane homogenate; from tissue; host or cells: rat hippocampal membrane homogenate
T1 sequence (P19327 1-422): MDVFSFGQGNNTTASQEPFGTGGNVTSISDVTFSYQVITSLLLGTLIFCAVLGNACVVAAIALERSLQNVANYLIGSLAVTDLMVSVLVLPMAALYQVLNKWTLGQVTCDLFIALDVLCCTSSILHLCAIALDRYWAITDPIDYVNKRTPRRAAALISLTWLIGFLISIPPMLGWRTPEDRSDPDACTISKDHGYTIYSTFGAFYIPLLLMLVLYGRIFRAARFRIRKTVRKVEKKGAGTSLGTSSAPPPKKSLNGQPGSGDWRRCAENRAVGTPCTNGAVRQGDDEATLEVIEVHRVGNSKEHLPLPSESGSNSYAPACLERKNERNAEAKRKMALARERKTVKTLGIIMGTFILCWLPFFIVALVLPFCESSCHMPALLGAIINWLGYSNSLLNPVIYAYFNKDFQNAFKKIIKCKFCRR
Assay: 5-HT1A receptor binding activity in rat hippocampal membrane homogenate
Procedure: The compounds of the invention were tested for 5-HT1A receptor binding activity in rat hippocampal membrane homogenate by the method of B. S. Alexander and M. D. Wood, J Pharm Pharmacol, 1988, 40, 888-891.

Structure (SMILES) | IC50 [nM]
COc1ccccc1N1CCN(C[C@H](c2ccccn2)[C@H](O)C2CCCCC2)CC1 (relative stereo) [Example 1a, R*, R*-1-(2Methoxyphenyl)-4-[(2-propan-(2-pyridinyl)-3-cyclohexyl)-3-ol]piperazine] | 4
COc1ccccc1N1CCN(C[C@H](c2ccccn2)[C@@H](O)C2CCCCC2)CC1 (relative stereo) [Example 1b, R*, S*-1-(2-Methoxyphenyl)-4-[(2-propan-(2-pyridinyl)-3-cyclohexyl)-3-ol]piperazine] | 4.3
COc1ccccc1N1CCN(CCC(c2ccccn2)[S+]([O-])C2CCCCC2)CC1 (single isomer, unassigned) [Example 7, 1-(2-Methoxyphenyl)-4-[3-(cyclohexylsulphoxy)-3-(2-pyridinyl)propyl]piperazine] | 15
COc1ccccc1N1CCN(CCC(C(=O)C2CCCCC2)c2ccccn2)CC1 (centres unmarked) [Example 3] | 2.6
COc1ccccc1N1CCN(CCC(CC2CCCCC2)c2ccccn2)CC1 (centres unmarked) [Example 4] | 1.6
COc1ccccc1N1CCN(CCC(SC2CCCCC2)c2ccccn2)CC1 (centres unmarked) [Example 6, 1-(2-Methoxyphenyl)-4-[3-(cyclohexylthio)-3-(2-pyridinyl)propyl]piperazine] | 4.25

The remaining lines, values ahead:

IC50 [nM] | Structure (SMILES)
2 | COc1ccccc1N1CCN(CC[C@H](c2ccccn2)[C@H](O)C2CCCCC2)CC1 (relative stereo) [Example 2a, R*,R*-1-(2-Methoxyphenyl)-4-[3-butan-(2-pyridinyl)-4-cyclohexyl)-4-ol]piperazine]
1.8 | COc1ccccc1N1CCN(CC[C@H](c2ccccn2)[C@@H](O)C2CCCCC2)CC1 (relative stereo) [Example 2b, R*,S*-1-(2-Methoxyphenyl)-4-[3-butan-(2-pyridinyl)-4-cyclohexyl)-4-ol]piperazine]
